PMC11026318, “Radiolabeled 15-mer peptide internalization is mediated by megalin (LRP2 receptor) in a CRISPR/Cas9-based LRP2 knockout human kidney cell model” (EJNMMI Radiopharmacy and Chemistry, 2024)
One block for each molecule: values may come before it.

Key:
[1] = tested on: HK2 cells (parent, partial KO, LRP2 KO); assay: Viability assay with gentamicin at cytotoxic concentration (CellTiter 96 AQueous One); type: cell-based, human; details: gentamicin 6 mg/mL, 48 h
Procedure: The cells were seeded in a 96-well plate (10^4 cells per well) 24 h prior to the experiment. The cells treated with gentamicin at cytotoxic concentration (6 mg/mL) were incubated in parallel with the controls in standard culture medium (representing 100% cell viability). The cells cultivated with 10% DMSO in culture medium represent 0% cell viability, which was measured after 48 h using the CellTiter 96® AQueous One Solution Cell Proliferation Assay (Promega) according to the manufacturer’s protocol. Absorbance was detected using a spectrophotometric plate reader (TECAN Infinite M200).

[2] = tested on: vascular endothelial growth factor (VEGF) receptor; details: in both in vitro and in vivo studies; ref Basile et al. [2011]; cited from earlier work
[3] = molecular target: T1, megalin (LRP2 receptor) in HK2 cells (Homo sapiens, UniProt P98164); assay: FITC-albumin accumulation studies in parent HK2 vs LRP2 knockout cells; type: cell-based; details: 24 µg/mL, 2 h; fluorescence of cell lysates related to total protein
T1 construct: a human kidney cell line with high endogenous megalin expression; host or cells: HK2 human kidney epithelial cells (parent), compared with CRISPR/Cas9 LRP2 KO derivatives
T1 sequence (P98164 26-4655): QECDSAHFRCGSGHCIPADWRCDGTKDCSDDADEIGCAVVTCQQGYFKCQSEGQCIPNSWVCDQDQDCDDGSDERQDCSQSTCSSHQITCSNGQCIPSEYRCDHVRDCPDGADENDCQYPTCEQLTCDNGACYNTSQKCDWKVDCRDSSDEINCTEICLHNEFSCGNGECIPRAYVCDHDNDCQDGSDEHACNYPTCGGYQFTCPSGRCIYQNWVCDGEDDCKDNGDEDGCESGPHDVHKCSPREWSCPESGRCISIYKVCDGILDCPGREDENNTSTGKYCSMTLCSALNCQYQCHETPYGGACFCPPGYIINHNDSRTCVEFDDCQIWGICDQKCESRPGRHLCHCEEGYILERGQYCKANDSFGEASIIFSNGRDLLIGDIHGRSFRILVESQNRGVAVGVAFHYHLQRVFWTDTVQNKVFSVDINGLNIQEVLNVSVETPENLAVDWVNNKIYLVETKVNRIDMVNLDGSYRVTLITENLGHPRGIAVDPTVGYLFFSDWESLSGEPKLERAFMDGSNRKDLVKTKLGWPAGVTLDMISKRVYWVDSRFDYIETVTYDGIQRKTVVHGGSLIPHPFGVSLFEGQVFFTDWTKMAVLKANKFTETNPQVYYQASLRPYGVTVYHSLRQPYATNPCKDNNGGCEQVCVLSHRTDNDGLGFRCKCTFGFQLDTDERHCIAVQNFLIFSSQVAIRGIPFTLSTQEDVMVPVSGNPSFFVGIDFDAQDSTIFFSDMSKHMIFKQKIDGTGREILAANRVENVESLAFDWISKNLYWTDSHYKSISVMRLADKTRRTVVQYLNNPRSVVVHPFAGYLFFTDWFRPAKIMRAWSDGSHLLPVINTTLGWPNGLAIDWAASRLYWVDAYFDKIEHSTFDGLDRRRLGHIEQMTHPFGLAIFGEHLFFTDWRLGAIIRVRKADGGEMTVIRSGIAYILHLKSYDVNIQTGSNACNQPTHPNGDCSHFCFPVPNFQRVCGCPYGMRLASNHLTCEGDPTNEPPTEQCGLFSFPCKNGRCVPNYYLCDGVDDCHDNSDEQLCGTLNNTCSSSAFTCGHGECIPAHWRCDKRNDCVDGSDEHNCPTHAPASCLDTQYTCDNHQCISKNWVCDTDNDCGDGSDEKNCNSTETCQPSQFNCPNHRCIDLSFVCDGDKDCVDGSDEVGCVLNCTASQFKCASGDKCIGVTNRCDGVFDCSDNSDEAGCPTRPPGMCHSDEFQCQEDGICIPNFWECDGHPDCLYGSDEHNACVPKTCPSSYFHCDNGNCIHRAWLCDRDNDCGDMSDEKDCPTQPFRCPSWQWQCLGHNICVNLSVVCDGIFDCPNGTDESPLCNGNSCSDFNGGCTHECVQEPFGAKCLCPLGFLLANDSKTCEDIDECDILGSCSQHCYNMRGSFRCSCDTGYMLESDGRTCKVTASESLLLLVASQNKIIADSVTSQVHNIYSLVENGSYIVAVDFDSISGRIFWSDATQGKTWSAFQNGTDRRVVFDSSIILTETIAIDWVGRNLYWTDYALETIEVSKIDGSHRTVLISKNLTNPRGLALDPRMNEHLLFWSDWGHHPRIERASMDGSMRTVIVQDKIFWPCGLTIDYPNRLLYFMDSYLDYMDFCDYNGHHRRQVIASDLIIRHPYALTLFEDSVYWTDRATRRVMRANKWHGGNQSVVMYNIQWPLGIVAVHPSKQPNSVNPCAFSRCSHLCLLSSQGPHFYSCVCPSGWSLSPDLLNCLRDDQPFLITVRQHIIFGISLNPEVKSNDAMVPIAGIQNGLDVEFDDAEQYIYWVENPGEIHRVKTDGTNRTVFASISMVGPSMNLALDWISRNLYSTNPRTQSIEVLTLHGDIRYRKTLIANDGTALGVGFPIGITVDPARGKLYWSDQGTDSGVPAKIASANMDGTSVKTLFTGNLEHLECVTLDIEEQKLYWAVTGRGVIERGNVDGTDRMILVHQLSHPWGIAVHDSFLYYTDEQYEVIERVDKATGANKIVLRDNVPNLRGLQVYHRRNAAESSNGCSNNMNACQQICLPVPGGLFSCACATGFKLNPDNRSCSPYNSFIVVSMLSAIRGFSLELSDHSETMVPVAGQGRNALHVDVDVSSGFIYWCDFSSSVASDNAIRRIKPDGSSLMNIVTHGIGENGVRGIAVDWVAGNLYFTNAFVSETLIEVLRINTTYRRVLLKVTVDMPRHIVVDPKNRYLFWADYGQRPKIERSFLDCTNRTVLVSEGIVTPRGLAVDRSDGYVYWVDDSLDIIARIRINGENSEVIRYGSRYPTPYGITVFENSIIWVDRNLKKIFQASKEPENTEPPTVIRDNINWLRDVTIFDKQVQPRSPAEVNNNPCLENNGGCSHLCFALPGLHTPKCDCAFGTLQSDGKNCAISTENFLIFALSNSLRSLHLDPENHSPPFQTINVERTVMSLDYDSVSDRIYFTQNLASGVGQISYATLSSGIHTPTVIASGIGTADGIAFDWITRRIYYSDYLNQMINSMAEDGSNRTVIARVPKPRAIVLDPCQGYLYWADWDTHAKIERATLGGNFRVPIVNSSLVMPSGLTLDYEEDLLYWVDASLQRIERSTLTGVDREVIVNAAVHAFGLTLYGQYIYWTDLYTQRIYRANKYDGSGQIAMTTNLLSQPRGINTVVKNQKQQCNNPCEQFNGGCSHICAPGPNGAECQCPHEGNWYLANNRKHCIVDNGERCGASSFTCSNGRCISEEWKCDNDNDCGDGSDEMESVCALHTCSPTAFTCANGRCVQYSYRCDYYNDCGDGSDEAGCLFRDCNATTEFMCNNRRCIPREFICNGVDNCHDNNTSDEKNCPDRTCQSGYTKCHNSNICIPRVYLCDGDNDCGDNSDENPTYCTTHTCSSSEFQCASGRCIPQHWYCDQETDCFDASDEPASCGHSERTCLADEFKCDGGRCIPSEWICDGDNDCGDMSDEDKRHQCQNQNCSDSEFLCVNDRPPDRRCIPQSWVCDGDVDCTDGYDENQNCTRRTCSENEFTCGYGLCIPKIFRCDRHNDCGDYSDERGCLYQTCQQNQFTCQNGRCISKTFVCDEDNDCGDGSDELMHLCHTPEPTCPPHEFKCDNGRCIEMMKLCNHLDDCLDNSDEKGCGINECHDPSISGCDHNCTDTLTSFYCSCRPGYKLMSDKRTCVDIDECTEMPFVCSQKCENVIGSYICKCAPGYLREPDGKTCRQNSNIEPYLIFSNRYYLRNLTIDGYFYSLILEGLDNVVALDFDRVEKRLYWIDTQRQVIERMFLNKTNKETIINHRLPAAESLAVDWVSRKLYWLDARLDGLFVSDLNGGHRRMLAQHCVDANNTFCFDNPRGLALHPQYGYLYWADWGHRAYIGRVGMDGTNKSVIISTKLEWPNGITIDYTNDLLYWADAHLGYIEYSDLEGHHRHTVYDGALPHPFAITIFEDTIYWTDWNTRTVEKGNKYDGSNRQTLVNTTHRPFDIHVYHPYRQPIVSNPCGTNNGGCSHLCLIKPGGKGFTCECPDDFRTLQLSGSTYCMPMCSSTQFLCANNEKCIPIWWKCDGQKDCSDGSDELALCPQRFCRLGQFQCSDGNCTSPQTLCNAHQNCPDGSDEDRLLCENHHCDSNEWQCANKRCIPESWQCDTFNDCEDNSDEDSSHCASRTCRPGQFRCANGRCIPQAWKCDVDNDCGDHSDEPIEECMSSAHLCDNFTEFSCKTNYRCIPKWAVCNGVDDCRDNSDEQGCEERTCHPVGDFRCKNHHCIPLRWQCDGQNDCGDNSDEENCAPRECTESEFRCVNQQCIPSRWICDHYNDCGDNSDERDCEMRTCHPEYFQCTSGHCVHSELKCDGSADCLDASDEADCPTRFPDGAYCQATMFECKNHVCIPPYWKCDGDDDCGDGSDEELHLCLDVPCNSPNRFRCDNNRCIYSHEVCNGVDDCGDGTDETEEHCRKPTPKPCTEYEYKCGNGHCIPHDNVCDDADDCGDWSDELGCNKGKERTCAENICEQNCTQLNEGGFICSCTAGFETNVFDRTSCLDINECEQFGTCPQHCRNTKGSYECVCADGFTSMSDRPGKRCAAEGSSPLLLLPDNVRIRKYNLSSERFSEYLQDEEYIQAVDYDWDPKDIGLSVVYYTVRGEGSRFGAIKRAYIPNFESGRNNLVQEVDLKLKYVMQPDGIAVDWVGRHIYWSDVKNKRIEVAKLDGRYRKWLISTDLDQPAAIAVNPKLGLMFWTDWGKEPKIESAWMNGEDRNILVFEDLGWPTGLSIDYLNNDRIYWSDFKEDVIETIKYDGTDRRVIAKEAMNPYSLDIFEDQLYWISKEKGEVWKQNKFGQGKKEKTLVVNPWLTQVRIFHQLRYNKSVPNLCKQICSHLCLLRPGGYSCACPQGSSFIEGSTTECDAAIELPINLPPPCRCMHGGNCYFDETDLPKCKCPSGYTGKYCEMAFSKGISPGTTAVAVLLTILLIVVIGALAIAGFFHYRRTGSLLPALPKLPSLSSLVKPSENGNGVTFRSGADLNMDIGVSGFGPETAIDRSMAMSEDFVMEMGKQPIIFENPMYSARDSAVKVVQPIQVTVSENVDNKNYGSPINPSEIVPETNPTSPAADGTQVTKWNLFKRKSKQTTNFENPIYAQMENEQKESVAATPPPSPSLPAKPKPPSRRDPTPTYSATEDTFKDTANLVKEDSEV
Procedure: The CRISPR/cas9 gene editing technique was implemented to generate LRP2 KO HK2 cells (Fig. 1) employing designed sgRNA sequences (Table 1). HK2 cells were seeded on 24-well plate (10^5 cells/well). Cells were transfected by sgRNA (720 ng per reaction) and TrueCut™ Cas9 Protein v2 (3 840 ng per reaction; Invitrogen) using Lipofectamine™ CRISPRMAX™ Cas9 Transfection Reagent (Invitrogen) according to the manufacturer’s instructions 24 h after seeding. The knockout reactions were repeated twice for each sgRNA. Each transfection was performed after 48 h of recovery. The final group of cells transfected sequentially six times was designated as LRP2 KO. A group of cells transfected only once with NPMY sgRNA but twice with TMD and PPPSPS sgRNAs, was designated as partial KO (Figs. 2A–E, 5A and B).
The accumulation studies of fluorescein isothiocyanate-labelled albumin (FITC-albumin, Merck) were performed in 24-well plates (10^5 cells per well). The cells were incubated with 24 µg/mL FITC-albumin, and Passive Lysis Buffer (Promega) was added to lyse the cells after 2 h treatment. The accumulated FITC-albumin was quantified by measuring the fluorescence intensity of cell lysates (Tecan Spark® multimode microplate reader). Fluorescence intensity was plotted against total protein concentration determined by the commercially available Pierce™ BCA Protein Assay Kit (ThermoFisher Scientific).

Molecule: CNC(C)C1CCC(N)C(OC2C(N)CC(N)C(OC3OCC(C)(O)C(NC)C3O)C2O)O1 (stereo not drawn) [gentamicin]
- Viability of partial KO or LRP2 KO cells after treatment, compared to HK2 parent cells [1]: higher viability

Molecule: Ac-KLTWMELYQLAYKGI-NH2 [15-mer, 15 amino acid anti-VEGFR peptide, custom synthesized according to a previously published structure (Basile et al. 2011)]
- Antiangiogenic effects [2]: potent antiangiogenic effects

- FITC-albumin accumulation in KO cells vs parent HK2 cells [3]: Reduced FITC-albumin accumulation
Molecule: fluorescein isothiocyanate-labelled albumin [FITC-albumin]
